For the series, the system named is MIP 101 human colon tumor xenograft. Description: Subcutaneous MIP 101 colon tumor model in athymic nude mice. The settings on record: for fate of the animals: all animals. The format is in vivo. From the text:
All cell lines that are used in animal studies are free of Mycoplasma contamination (Rapid Detection System by Gen-Probe, Inc., San Diego, Calif.) and viral contamination (MAP testing by MA BioServices, Inc., Rockville, Md.). The HCT-15 human colon tumor cell line is purchased from the American Type Culture Collection, Rockville, Md., Accession Number ATCC CCL 225. The MIP 101 human colon tumor cell line is obtained from Dr. R. Kramer (Bristol Meyers Squibb) and was previously described (Niles R M, et al. Cancer Invest. 1987;5(6):545-52). These cells are Pgp-1 (human Pgp) overexpressors, making the cells resistant to paclitaxel. All cell lines are propagated and expanded in RPMI 1640 medium containing 10% heat-inactivated FBS (Life Technologies, Grand Island, N.Y.). Cell expansions for implantation are performed in T225 tissue culture flasks. Cells are harvested at 70-90% confluency, washed once with HBSS containing 10% FBS, and are suspended in plain HBSS.
Outbred athymic (nu/nu) female mice (“Hsd:Athymic Nude-nu” from Harlan Sprague Dawley, Indianapolis, Ind.) are anesthetized with Metofane (Mallinckrodt Veterinary, Inc., Mundelein, Ill.,). A cell suspension (100 μL) containing 1×10^6 cells is then injected sc into the right axillary (lateral) region of each animal. Tumors are allowed to grow until a volume of approximately 100 mm^3 was achieved. At this point, mice bearing tumors are sorted into groups of eight for the study. The sorting process produced groups balanced with respect to mean and range of tumor size.
Discodermolide is isolated from the sponge Discodermia dissoluta using the methods of (Gunasekera S P, et al. supra). Multiple batches of compound of similar purity (all>95% pure, as determined by mass spectrometry, and nuclear magnetic resonance analysis) are used throughout the various studies. Solid discodermolide is dissolved in pure ethanol to create a stock solution which is diluted just before dosing with Cremophor EL (Crm) and D5W to a final concentration of 16.7% Cremophor EL, 8.3% ethanol and 75% D5W. The compound is administered intravenously (iv). In the first study discodermolide is tested against both tumors at five different dosing schedules: (i.) 30 mg/kg dosed as two 15 mg/kg injections on day 1 of the experiment, (ii.) 30 mg/kg dosed as three 10 mg/kg injections on days 1, 2, and 3, (iii.) 15 mg/kg dosed as a single injection on day 1, (iv.) 20 mg/kg dosed as a 15 mg/kg injection on day 1, followed by a 5 mg/kg injection on day 11, and (v.) 10 mg/kg dosed as a 7.5 mg/kg injection on day 1 followed by a 2.5 mg/kg injection on day 11. In the second study discodermolide is dosed as one injection on the first day of the experiment, at 2.5 mg/kg, 5 mg/kg, 7.5 mg/kg, 10 mg/kg, 12.5 mg/kg, or 15 mg/kg. In addition the 7.5 mg/kg injection on day 1 followed by a 2.5 mg/kg injection on day 11 is repeated from the first study. The actual doses, regimens and routes of administration used for the specific models are discussed in each section separately. Positive control animals receive clinical formulations of paclitaxel (TAXOL) diluted 4-fold with D5W and administered iv once daily for five consecutive days. Vehicle control for paclitaxel is administered according to paclitaxel's schedule. In the first study vehicle controls for discodermolide (16.7% Cremophor EL, 8.3% ethanol and 75% D5W) are administered as three daily injections on days 1, 2, and 3, or as two injections on days 1, and 11. In the second study vehicle control for discodermolide is administered as a single injection on day 1.
Tumors are measured, and individual animal body weights are recorded once weekly. Standard experiments are conducted for 3 full weeks from the initial dosing.
Antitumor activity is expressed as % T/C (comparing Δ tumor volumes for treatment group to vehicle control group). […]

Setting [1] is: first study, 7.5 mg/kg day 1 + 2.5 mg/kg day 11.
The mark [2] stands for this setting: first study, discodermolide iv single 15 mg/kg injection on day 1.
Setting [3] is: first study, two 15 mg/kg injections on day 1 (30 mg/kg total).
Setting [4] is: second study, 7.5 mg/kg day 1 + 2.5 mg/kg day 11.

A word on the T/C: it is the result in the treated group divided by that in the control group, in per cent. For the compound `C=C/C=C\[C@H](C)[C@H](OC(N)=O)[C@@H](C)[C@H](O)[C@@H](C)C/C(C)=C\[C@H](C)[C@@H](O)[C@@H](C)/C=C\[C@@H](O)C[C@@H]1OC(=O)[C@H](C)[C@@H](O)[C@H]1C` [discodermolide, (+)-Discodermolide], the “inhibition of tumor growth (in words)” value (MIP 101 xenograft, athymic nude mice) is “statistically significant (p<0.01) and reproducible inhibition of tumor growth”. Also, the T/C reads like this: under setting [1], 38%; under setting [2], 36%; under setting [3], 24%; under setting [4], 35%; (second study, single injection 2.5 mg/kg day 1) 59%; (second study, single injection 5 mg/kg day 1) 57%. The compound also displayed a T/C (second study, single injection 7.5 mg/kg day 1) of 46%; a T/C (second study, single injection 10 mg/kg day 1) of 37%; a T/C (second study, single injection 12.5 mg/kg day 1) of 22%; a T/C (second study, single injection 15 mg/kg day 1) of 18%. The body weight loss stood at 21.3% under setting [1]; 18.9% under setting [2]; 23.4% under setting [3]; 11.4% under setting [4]; 7.9% (second study, single injection 2.5 mg/kg); 10.2% (second study, single injection 5 mg/kg). In addition, the body weight loss by setting is: (second study, single injection 7.5 mg/kg) 13.2%; (second study, single injection 10 mg/kg) 18.7%; (second study, single injection 12.5 mg/kg) 15.5%; (second study, single injection 15 mg/kg) 11.7%. Also, the “fate of the animals” value reads like this: (first study, 15 mg/kg day 1 + 5 mg/kg day 11) “sacrificed in the beginning of the third week of the experiment due to the excessive body weight loss”; (first study, 30 mg/kg as three 10 mg/kg injections on days 1, 2, 3) “die on day 5 of the experiment”. Also, the deaths result under setting [4] is recorded as “One animal in that group dies from apparent drug toxicity”.
`CC(=O)O[C@H]1C(=O)[C@@]2(C)[C@H]([C@H](OC(=O)c3ccccc3)[C@]3(O)C[C@H](OC(=O)[C@H](O)[C@@H](NC(=O)c4ccccc4)c4ccccc4)C(C)=C1C3(C)C)[C@]1(OC(C)=O)CO[C@@H]1C[C@@H]2O` [paclitaxel, reference compound]: the T/C reads like this: (first study, paclitaxel 15 mg/kg daily for the first 5 days) 82%; (second study, paclitaxel iv once daily for five days, p<0.01) 54%.
